Laboratory results published in US8501166B2, “Pyrimidinyl indole compounds” (Hutchison Medipharma Limited, priority 2010, dated 2013).
Counter-ions that a name gives are not always drawn.

Columns and labels:
[1] = system: OVA-induced airway inflammation; assay: OVA-induced pulmonary inflammation in Brown-Norway rats; type: in vivo; conditions: Rattus norvegicus, 480 h; BN rats, 0.3 to 30 mg/kg oral bid, day 20 and 21; read-out: ED50, increase of total cells and eosinophiles in BAL fluids
Method: To evaluate the effects of IKKβ inhibitors on antigen-driven airway inflammation in vivo, the compound is also tested in OVA-induced pulmonary inflammation model in rats essentially as described in a method reported in the literature (Yamamoto N, Takeshita K, Shichijo M, Kokubo T, Sato M, Nakashima K, Ishimori M, Nagai H, Li Y F, Yura T, Bacon K B. J Pharm. Exp Ther. 2003; 306(3):1174-81). Briefly, male BN rats weighing from 240 to 260 g are sensitized by intraperitoneal injection of 1 mL of saline containing 1 mg of OVA and 13 mg of aluminum hydroxide on days 1, 2 and 3. Rats serving as normal control received 1 mL of saline instead of OVA. The test compound at doses of 0.3, 1, 3 and 30 mg/kg (bid) is orally administered to rats on day 20 and 21. On day 21 rats are challenged with 1% OVA for 15 minutes with Buxco Mass Dosing System. On day 22, rats are anesthetized with 1% Pentobarbital Sodium. The thoracic and abdominal cavities are opened. Plasma is collected from centrifuged specimens. The trachea is dissected and transected. Through the insertion of an 18-gauge catheter into the trachea, the lungs are lavaged with a total of 15 mL of sterile PBS, and then placed into a specimen container. Cell-free BAL supernatants are obtained by centrifugation of BAL fluids. All serum and BAL supernatants are stored at −80° C. until use. […]

DNBS-induced colitis = DNBS-induced colitis in rat; type: in vivo, Wistar rats; conditions: 3, 10, 30 and 60 mg/kg oral, six days
Method: A compound is tested in DNBS-induced colitis model in rat essentially as described in a method reported in the literature (Gut. 2002; 50(3):440-1). Briefly, Wistar rats are used in the experiments. Following the induction of distal colitis by intra-colonic instillation of DNBS, the test compound at doses of 3, 10, 30, 60 mg/kg (bid) is administered to rats orally for six days. The negative control group is treated with the vehicle alone without DNBS instillation. The vehicle-control group rats are DNBS-induced and treated with vehicle. In the positive control group, sulfasalazine is orally administered to the rats at 300 mg/kg daily for six consecutive days. Animals are euthanized 24 h after the final treatment. Colon-to-body weight ratio and colonic damage scores are calculated for each animal. Vehicle treatment of rats results in a progressive worsening of clinical symptoms, achieving a maximum colonic damage score of 6.1±0.6 and colon-to-body weight ratio-colon length of 0.96±0.10 on day 7 after instillation. In this DNBS-induced inflammatory bowel disease model, rats treated with Example 2 at doses of 3, 10, 30 and 60 mg/kg show a marked reduction in colonic damage scores, colon-to-body weight-to-colon length ratio with more than 30% reduction.

[2] = system: SKOV-3x-FF-luci human ovarian cancer xenograft; assay: Anti-tumor effects in SKOV-3x-FF-luci xenograft (alternate protocol, 23 days); type: in vivo, Balb/c nu/nu mice
Method: Alternately, the test compound is evaluated for its anti-tumor effects on tumor growth of human ovarian cancer SKOV-3x-FF-luci in nude mice. SKOV-3x-FF-luci cell line (ATCC) is cultured in McCoy's 5a medium containing 10% fetal calf serum. Female Balb/c nu/nu mice (6-7 weeks old) are injected peritoneally with 0.2 mL of cell suspension containing 2×10^6 cells. Mice are randomized and divided into four groups six days after cell implantation. The test compound at doses of 30 and 100 mg/kg is orally administered to animals twice a day for 23 consecutive days. Mice in the control group are administered the vehicle (10% Acacia), twice a day. Mice in the positive control group are injected with Cisplatin (4 mg/kg) via the tail vein once a week. At the end of the treatment, all mice are euthanized with CO2 and tumor nodules in the peritoneal cavity, diaphragmatic muscle, mesenterium, liver, spleen, and ovaries are dissected, harvested, and combined for the measurement of weight. Inhibition rate: IR %=(tumor weight in control−tumor weight in drug treated)/tumor weight in control×100%).

[3] = system: SKOV-3x-FF-luci human ovarian cancer xenograft; assay: Antitumor effect in SKOV-3x-FF-luci xenograft with vincristine (VCR); type: in vivo, Balb/c nu/nu mice
Method: In order to expand the anti-tumor spectrum, more combination testing is explored. Based on in vitro synergistic effect of Example 1 and VCR, the compound is tested for its anti-tumor effects in SKOV-3x-FF-luci xenograft in the presence/absence of VCR. The SKOV-3x-FF-luci human ovarian cancer line (ATCC) is cultured in McCoy's 5a medium containing 10% FCS. Female Balb/c nu/nu mice (6-7 weeks old) are peritoneally injected with 0.2 mL of cell suspension containing 2×10^6 cells. Mice are divided into nine groups six days after cell implantation. The test compound is orally administered twice a day at 60 mg/kg for 20 consecutive days or at 90 mg/kg with a 2 days on and 5 days off dosing schedule. VCR at 1 or 0.3 mg/kg is administered via tail vein injection, once a week. In the combination group, VCR is given 1 h after the administration of the test compound. Mice from the control group are administered with the oral vehicle (10% Acacia at pH2.1) and intraperitoneally injected with saline. At the end of the treatment, all mice are euthanized with CO2 and tumors in the peritoneal cavity, diaphragmatic muscle, mesenterium, liver, spleen, and ovaries are harvested with surgery scissors and weighted. […] In the combination group, tumor growth is inhibited by 76% and 74%. Compared with monotherapy, statistical significance is found between combination and monotherapy.

SMILES | ED50 [1] | reduction in colonic damage scores, colon-to-body weight-to-colon length ratio (DNBS-induced colitis) | tumor inhibition rate (IR) ([2]; 30 mg/kg oral twice a day) | tumor inhibition rate (IR) ([2]; 100 mg/kg oral twice a day) | tumor growth inhibition ([3]; Example 1 alone 60 mg/kg oral twice a day, 20 days) | tumor growth inhibition ([3]; Example 1 alone 90 mg/kg, 2 days on and 5 days off) | tumor growth inhibition ([3]; combination group: Example 1 60 mg/kg + VCR) | tumor growth inhibition ([3]; combination group: Example 1 90 mg/kg + VCR)
Cl.O=C(NC1CC1)c1cccc2[nH]c(-c3nc(N[C@@H]4CCC[C@H]4O)ncc3Cl)cc12 [Example 2, 2-{5-Chloro-2-[(1R,2R)-2-hydroxycyclopentylamino]pyrimidin-4-yl}-N-cyclopropyl-1H-indole-4-carboxamide hydrochloride] | 0.49 mg/kg | more than 30% | 59.3% | 93.9% |  |  |  | 
O=C(NC1CC1)c1cccc2[nH]c(-c3nc(N[C@@H]4CCC[C@@H]4O)ncc3Cl)cc12 [Example 1, 2-{5-Chloro-2-[(1R,2S)-2-hydroxycyclopentylamino]pyrimidin-4-yl}-N-cyclopropyl-1H-indole-4-carboxamide hydrochloride] |  |  |  |  | 42% | 36% | 76% | 74%
